# From patent US6436627B1, “Gene encoding an invertebrate α1 calcium channel subunit” (The Research Foundation of State University of New York, priority 1995, dated 2002)
# Key:
# Assay type in all cases: cell-based
# [1] = molecular target: T1, Drosophila Dmca1D calcium channel (L23RDD2 α1 + α2−δ + β) (Drosophila melanogaster, UniProt Q24270, A1391P/C1440T/D1375E/D1388K/D1403I/D1421E/D1422S/D1433P/DEL1408-1416/DEL1426-1431/E1379S/E1381Q/E1419P/E1434Y/E1435P/E1441G/G1404N/H1387E/H1396E/I1402K/INS1389RKKLARTA/INS1394[…]/L1420N/M1439T/P1386E/P1400T/Q1392E/Q1417L/R1437P/S1378T/S1395G/T1399P/V1380A/V1436N); assay: Calcium channel currents in Xenopus oocytes expressing Drosophila L23RDD2 α1 with α2-δ and β subunits; details: 2 μM BayK8644, Solution 2, BAPTA preinjection
# T1 construct: rabbit cardiac α1C subunit amino acids 790-874 (85 aa insert replacing the fly II-III loop segment); expressed in transfected cells; host or cells: Xenopus oocytes injected with cRNA
# T1 sequence (P13806 27-960, stated change not applied): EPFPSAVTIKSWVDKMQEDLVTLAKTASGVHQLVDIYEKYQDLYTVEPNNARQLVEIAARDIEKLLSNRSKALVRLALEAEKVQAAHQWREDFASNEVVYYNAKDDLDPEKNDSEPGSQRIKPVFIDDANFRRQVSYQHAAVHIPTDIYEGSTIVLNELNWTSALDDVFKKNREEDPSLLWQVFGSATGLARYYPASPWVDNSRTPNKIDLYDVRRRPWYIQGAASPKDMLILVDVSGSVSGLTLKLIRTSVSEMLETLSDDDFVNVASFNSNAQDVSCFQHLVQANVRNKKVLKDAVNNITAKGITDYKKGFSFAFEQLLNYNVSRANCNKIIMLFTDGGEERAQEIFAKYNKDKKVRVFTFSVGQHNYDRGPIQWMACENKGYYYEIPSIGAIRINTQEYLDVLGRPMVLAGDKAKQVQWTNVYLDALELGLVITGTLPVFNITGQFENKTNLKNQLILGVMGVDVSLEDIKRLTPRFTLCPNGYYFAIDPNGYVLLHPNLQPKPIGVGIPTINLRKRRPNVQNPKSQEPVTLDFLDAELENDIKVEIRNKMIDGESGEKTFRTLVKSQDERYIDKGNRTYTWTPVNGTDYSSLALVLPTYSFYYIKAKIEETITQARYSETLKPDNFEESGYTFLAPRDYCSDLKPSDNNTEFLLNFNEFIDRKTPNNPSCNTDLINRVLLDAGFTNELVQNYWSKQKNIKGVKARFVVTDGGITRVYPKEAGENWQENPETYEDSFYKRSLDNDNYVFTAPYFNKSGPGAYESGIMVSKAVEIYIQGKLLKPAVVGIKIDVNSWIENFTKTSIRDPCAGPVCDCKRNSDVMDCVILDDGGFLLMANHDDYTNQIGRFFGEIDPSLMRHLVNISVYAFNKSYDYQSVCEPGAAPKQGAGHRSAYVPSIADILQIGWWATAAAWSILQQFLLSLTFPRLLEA
# T1 sequence (P13806 961-1106, stated change not applied): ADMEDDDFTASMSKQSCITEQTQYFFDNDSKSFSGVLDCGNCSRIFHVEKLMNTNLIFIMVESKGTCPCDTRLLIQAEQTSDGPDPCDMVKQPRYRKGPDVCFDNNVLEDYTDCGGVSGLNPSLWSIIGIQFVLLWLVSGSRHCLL
# T1 sequence (Q24270 other isoform, or with tags, fused parts or gaps with the stated changes): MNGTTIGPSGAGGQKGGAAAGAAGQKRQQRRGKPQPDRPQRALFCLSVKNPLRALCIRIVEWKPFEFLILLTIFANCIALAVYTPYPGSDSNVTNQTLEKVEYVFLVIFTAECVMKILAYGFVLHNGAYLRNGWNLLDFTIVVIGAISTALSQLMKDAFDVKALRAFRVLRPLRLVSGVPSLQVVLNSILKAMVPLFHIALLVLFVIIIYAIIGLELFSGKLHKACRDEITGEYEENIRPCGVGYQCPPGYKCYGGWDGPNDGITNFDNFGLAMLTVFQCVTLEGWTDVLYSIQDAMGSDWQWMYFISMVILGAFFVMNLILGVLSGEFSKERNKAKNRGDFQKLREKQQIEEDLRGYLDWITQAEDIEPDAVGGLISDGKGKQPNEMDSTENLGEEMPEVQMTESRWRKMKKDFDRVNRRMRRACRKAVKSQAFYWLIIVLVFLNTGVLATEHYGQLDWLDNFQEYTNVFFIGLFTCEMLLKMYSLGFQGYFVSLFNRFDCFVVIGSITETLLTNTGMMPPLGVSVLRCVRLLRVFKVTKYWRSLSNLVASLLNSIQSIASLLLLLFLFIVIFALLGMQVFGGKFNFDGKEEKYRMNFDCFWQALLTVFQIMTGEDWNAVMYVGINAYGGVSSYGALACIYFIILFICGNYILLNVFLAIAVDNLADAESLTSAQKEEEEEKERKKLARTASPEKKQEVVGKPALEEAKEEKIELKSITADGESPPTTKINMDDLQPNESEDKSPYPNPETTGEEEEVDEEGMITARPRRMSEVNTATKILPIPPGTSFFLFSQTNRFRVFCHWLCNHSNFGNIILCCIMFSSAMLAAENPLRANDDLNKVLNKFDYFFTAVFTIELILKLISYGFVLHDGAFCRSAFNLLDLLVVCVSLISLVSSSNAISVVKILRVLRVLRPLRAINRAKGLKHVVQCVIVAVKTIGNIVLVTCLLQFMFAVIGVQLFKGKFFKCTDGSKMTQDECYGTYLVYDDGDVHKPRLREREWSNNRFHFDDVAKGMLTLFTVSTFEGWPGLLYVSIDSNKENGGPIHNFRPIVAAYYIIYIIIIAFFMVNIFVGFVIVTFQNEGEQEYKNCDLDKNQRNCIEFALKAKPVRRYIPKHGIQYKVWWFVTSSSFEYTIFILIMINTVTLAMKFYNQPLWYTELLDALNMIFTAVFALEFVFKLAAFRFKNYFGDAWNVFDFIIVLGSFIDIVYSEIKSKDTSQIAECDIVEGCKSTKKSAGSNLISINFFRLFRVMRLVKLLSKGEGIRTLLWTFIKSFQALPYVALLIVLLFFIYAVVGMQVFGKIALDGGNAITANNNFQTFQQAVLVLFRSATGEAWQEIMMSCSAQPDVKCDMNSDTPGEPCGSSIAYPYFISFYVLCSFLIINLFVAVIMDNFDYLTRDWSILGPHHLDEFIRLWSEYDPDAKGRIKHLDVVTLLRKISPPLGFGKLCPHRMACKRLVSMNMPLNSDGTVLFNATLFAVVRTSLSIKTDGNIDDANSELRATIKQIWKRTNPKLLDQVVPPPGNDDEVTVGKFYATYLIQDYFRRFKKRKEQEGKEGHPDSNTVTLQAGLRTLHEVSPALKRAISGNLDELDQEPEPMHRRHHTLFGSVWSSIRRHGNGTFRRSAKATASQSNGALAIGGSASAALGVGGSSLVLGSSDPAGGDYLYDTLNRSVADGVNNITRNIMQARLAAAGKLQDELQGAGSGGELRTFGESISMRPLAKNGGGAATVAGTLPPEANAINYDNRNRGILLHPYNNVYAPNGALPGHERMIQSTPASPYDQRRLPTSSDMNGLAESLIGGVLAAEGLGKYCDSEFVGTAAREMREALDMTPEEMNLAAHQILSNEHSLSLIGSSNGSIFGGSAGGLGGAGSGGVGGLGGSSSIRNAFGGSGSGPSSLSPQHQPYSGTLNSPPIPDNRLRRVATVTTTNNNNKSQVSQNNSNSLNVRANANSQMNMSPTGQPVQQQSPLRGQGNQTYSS
# From the text: (§1) Construct L23RDD2 in the pAGA2 vector (Wei et al. (1991) J. Biol. Chem. 266:21943-21947) encodes the Drosophila DmcalD calcium channel α1 subunit. The coding sequence begins with the fifth methionine in the published sequence (Zheng et al. (1995) J. Neurosci. 15:1132-1143). A part of the II-III cytoplasmic loop (amino acids […] in Zheng et al. (1995) J. Neurosci. 15:1132-1143) has been replaced with 85 amino acids from the rabbit cardiac α1C subunit (amino acids 790-874, Wei et al. 1991, supra ). The α2−δ subunit used in these studies is MXTα2−δ. This is an EcoRI fragment from the rabbit skeletal muscle α2−δ subunit described by Mikami et al. ((1989) Nature340:230-233) subcloned into the Xenopus oocyte expression vector pBScMXT (from L. Salkoff, Washington, St Louis). The Drosophila beta subunit clone used was β-DN2CI in oocyte expression vector pAGA2. This beta subunit isoform contains both conserved domains and the N2 form of form of the amino terminus. The rabbit cardiac α1C subunit clone (Wei et al. 1991, supra) (in the pAGA2 vector) was CardΔN60 in which the first 60 amino acids on the N terminus were deleted to enhance expression.
# (§2) Injection mixtures were prepared in 1 mM Tris pH7.0 and 50 nl was injected into each oocyte. For studies of the Drosophila L23RDD2 channel αl subunit the concentrations of the “undiluted” cocktail in ng/ul were: 300 αl, 150 α2−δ, 83 β. For studies of the rabbit cardiac αl subunit the concentrations of the “undiluted” cocktail in ng/μl were: 12 α1, 6.6 α2−δ, 3.6 β. Oocytes were incubated at 18° C. in ND96 plus supplements (Goldin (1992) Methods Enz. 207:266-279) (changed daily) until recording.
# (§3) Two different recording solutions were used. Solution 1 consisted of (in mM): 40 Ba(OH)2, 50 NaOH, 2 KOH, 1 niflumic acid, 0.1 EGTA, 5 HEPES, adjusted to pH 7.4 with methanesulfonic acid (Pragnell et al. (1994) Nature 368:67-70). Solution 2 was used for some experiments and consisted of (in mM): 40 Ba(OH)2, 52 TEA, 5 HEPES, adjusted to pH 7.4 with methanesulfonic acid (Yang et al. (1993) Nature 366:158-161). […]
# (§4) FIG. 20 summarizes a dose response curve for the dihydropyridine antagonist nifedipine using oocytes expressing CRNA (in ng/ul): 150 L23RDD2 α1, 75 α2−δ, and 41.5 β. Each point represents 3 to 9 oocytes recorded in Solution 1. […] This compares well with the nifedipine sensitivity determined for this calcium channel in Drosophila larval muscle where 10 μM nifedipine blocks 80% of the current associated with the Dmca1D current (Gielow et al. (1995) J. Neurosci. 15:6085-6093). […] Thus, the Xenopus oocyte expression system is ready for use in testing compounds active against this calcium channel in insects. […]
# [2] = molecular target: T2, rabbit cardiac calcium channel (α1CΔN60 + α2−δ + β) (Oryctolagus cuniculus, UniProt P15381); assay: Calcium channel currents in Xenopus oocytes expressing the rabbit cardiac α1C subunit with α2-δ and β subunits; details: 2 μM BayK8644, Solution 2, BAPTA preinjection
# T2 construct: expressed in transfected cells; host or cells: Xenopus oocytes injected with cRNA
# From the text: We completed an analysis of 14 different chimeras to identify the region which was preventing expression of the Drosophila Dmca1D calcium channel currents in Xenopus oocytes. As a result of that analysis we defined a short region of 67 amino acids in the cytoplasmic loop between repeats II and III that was causing the difficulty (see FIG. 11). When an 85 amino acid segment from the rabbit cardiac α1 C subunit was substituted in place of this 67 amino acid Drosophila sequence, we were able to reproducibly generate small calcium channel currents using barium as the charge carrier. In this Example, and in the experiments described in the Examples below, we used a combination of subunit cRNAs. […] When control experiments were run using rabbit cardiac calcium channels, the same auxiliary subunits were used and the rabbit αlCΔN60 subunit was used in place of the Drosophila L23RDD2 α1 chimera.
# Construct L23RDD2 in the pAGA2 vector (Wei et al. (1991) J. Biol. Chem. 266:21943-21947) encodes the Drosophila DmcalD calcium channel α1 subunit. The coding sequence begins with the fifth methionine in the published sequence (Zheng et al. (1995) J. Neurosci. 15:1132-1143). A part of the II-III cytoplasmic loop (amino acids 1222-1228 in Zheng et al. (1995) J. Neurosci. 15:1132-1143) has been replaced with 85 amino acids from the rabbit cardiac α1C subunit (amino acids 790-874, Wei et al. 1991, supra ). […]
# [3] = molecular target: T3, Drosophila Dmca1D calcium channel (L23RDD2 α1 + α2−δ + β) (Drosophila melanogaster, UniProt Q24270, A1391P/C1440T/D1375E/D1388K/D1403I/D1421E/D1422S/D1433P/DEL1408-1416/DEL1426-1431/E1379S/E1381Q/E1419P/E1434Y/E1435P/E1441G/G1404N/H1387E/H1396E/I1402K/INS1389RKKLARTA/INS1394QEVVGKPALEEAKEEKIELKSITAD/L1420N/M1439T/P1386E/P1400T/Q1392E/Q1417L/R1437P/S1378T/S1395G/T1399P/V1380A/V1436N); assay: Calcium channel currents in Xenopus oocytes expressing Drosophila L23RDD2 α1 with α2-δ and β subunits
# T3 construct: rabbit cardiac α1C subunit amino acids 790-874 (85 aa insert replacing the fly II-III loop segment); expressed in transfected cells; host or cells: Xenopus oocytes injected with cRNA
# T3 sequence (P13806 27-960, stated change not applied): as the sequence (P13806 27-960, stated change not applied) above
# T3 sequence (P13806 961-1106, stated change not applied): as the sequence (P13806 961-1106, stated change not applied) above
# T3 sequence (Q24270 other isoform, or with tags, fused parts or gaps with the stated changes): as the sequence (Q24270 other isoform, or with tags, fused parts or gaps with the stated changes) above
# From the text: as §1, §2, §3, §4
Compound,Effect of BayK on the channel current (in words) [1],Effect on tail current kinetics in the presence of BayK (in words) [1],Peak current in the presence of BayK ([1]; same oocyte without BayK 1548.5 nA) [nA],Effect of BayK on the channel current (in words) [2],Peak current in the presence of BayK ([2]; same oocyte without BayK 488.2 nA) [nA],EC50 [3] [µM]
COC(=O)C1=C(C)NC(C)=C([N+](=O)[O-])C1c1ccccc1C(F)(F)F (stereo not drawn) [BayK8644],no stimulation,no obvious change in kinetics,1208.1,increase in the peak current and slowing of the tail currents,1673.7,
COC(=O)C1=C(C)NC(C)=C(C(=O)OC)C1c1ccccc1[N+](=O)[O-] [nifedipine],,,,,,~3
